Test results from patent US7384733B1, “Interface patch clamping” (Xention Discovery Limited, priority 1998, dated 2008).

Biological target: potassium currents (Kv1.1) in MK1 cell (Mus musculus, UniProt P16388)
Conditions: TEA 5 mM in extracellular solution in the dish, then washing; FIG. 21
Description: The solution may be exchanged readily by perfusion of the dish and this allows multiple drug additions and dose response curves to be obtained while recording from the one cell.
The holding potential was −60 mV and (a) and (b) show outward potassium currents (Kv1.1) in response to a voltage step to +30 mV.

Sequence of potassium currents (Kv1.1) in MK1 cell (P16388 whole entry): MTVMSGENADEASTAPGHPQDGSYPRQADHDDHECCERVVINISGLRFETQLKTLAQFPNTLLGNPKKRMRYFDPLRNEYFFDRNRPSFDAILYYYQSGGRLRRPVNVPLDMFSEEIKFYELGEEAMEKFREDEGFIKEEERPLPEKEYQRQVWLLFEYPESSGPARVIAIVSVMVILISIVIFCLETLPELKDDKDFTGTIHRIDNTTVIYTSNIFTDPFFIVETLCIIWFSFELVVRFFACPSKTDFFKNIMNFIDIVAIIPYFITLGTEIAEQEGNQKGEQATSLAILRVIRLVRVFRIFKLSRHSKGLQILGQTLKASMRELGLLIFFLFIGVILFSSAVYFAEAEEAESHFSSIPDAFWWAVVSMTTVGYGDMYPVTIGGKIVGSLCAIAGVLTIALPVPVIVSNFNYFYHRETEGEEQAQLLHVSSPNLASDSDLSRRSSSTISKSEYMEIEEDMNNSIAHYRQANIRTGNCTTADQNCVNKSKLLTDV

## CC[N+](CC)(CC)CC [TEA, tetraethylammonium]
  effect on the potassium current recorded from MK1 cell in whole cell recording mode: blocking effect of TEA was reversed by washing
